Two molecules from US20250248968A1, “COMPOSITION COMPRISING CAPSAICIN OR A CAPSACINOID” (MESTEX AG, priority 2019, published 2025) can be followed below.

Holding throughout (assay type): in vivo, human
Data set [1] deals with patient with painful rizarthrosis. As to the kind of experiment: Example 6: injection into painful joint base before surgery for rizarthrosis, postoperative pain. The method, then:
A patient with painful rizarthrosis was scheduled for surgical treatment of the disease on week prior to the operation. the patient was injected with 1 ml of a physiological saline solution containing 0.9 mg capsaicin into the painful joint base without prior administration of local anesthetics. The massive pain was treated with ice packs and inter-muscular morphine.

Data set [2] has as its system patient with anterior cruciate ligament rupture with medial meniscal tear. The data set can be described thus: Example 2: intra-articular treatment 3 weeks before cruciate ligament and meniscal repair, postoperative pain and range of motion. As for the experimental part: A physiotherapist suffered a traumatic anterior cruciate ligament rupture with medial meniscal tear. Due to unacceptable symptoms of instability a surgical reconstruction was scheduled. During the waiting period for the operation 3 weeks preoperatively an intra-articular treatment with 2 micrograms of resiniferatoxin dissolved in Ringers lactate buffer at a concentration of 200 ng/ml with immediate prior administration (i.e. within 1 minute) of a local anesthetic (5 ml 0.5% bupivacaine) was applied.
Three weeks later a crucial ligament repair using patellar tendon autograft and arthroscopic meniscal repair was performed. Postoperative pain was restricted to the first 72 hours and below VAS 2 thereafter. Unexpectedly the passive range of motion was flex-extension of 130-0-0° 3 weeks after the operation and further improving thereafter with minimal (VAS 1) pain.

For data set [3], the system named is patients with symptoms of frozen shoulders. The data set can be described thus: Example 4: intra-articular treatment before arthroscopic capsular release, pain and mobility. As for the experimental part:
A series of 3 patients with symptoms of frozen shoulders (VAS >6) for at least six month were scheduled for arthroscopic capsular release. All patients were treated with an intra-articular treatment with 2 micrograms of resiniferatoxin dissolved in 10 ml of physiological salt solution containing 4 mM Ca^2+ with immediate prior administration (2.5 and 15 minutes prior to resiniferatoxin) of a local anesthetic (5 ml 0.25% ropivacaine) at 29, 32 and 40 days preoperatively.
Thereafter pain regressed 2 weeks after injection to a level below VAS 3 in all patients. The postoperative pain treatment after capsulotomy included 5 days of regional continuous anesthesia.

Data set [4] deals with patient with symptomatic hallux valgus. As to the kind of experiment: Example 5: intra-articular injection one month before hallux valgus surgery, postoperative pain. Particulars: 200 ng intra-articular one month preoperatively; 2 ml 2% Lidocaine 5 minutes prior; 1 patient. The method, then: A patient with symptomatic hallux valgus was scheduled for surgical treatment. One month preoperatively an intra articular injection 1 ml resiniferatoxin (200 ng) was administered into the interphalangeal join space with prior (5 minutes) periarticular anesthesia using 2 ml 2% Lidocaine.

The subject of data set [5] is patient with hip osteoarthritis. As to the kind of experiment: Example 1: intra-articular hip infiltration one month before total hip prosthesis, postoperative pain. The method, then:
A patient with hip osteoarthritis and pain for 2 years was not treatable anymore with conventional pain medication (NSAIDS, Paracetamol, opioids, etc.) or infiltration (corticosteroids, hyaluronic acid). Therefore the patient was treated with an infiltration into the hip joint under fluoroscopic control with 0.8 micrograms of Resiniferatoxin dissolved in 250 microliters of Ethanol and mixed with 5 ml buffer solution.
10 minutes prior to the injection a local anesthetic (5 ml lidocaine 2%) was applied under fluoroscopic control intra-articularly to prevent injection pain. Moderate post-injection pain after RTX was controlled with oral administration of morphine. One month later the patient still suffered from relevant impairment of hip mobility and peritrochanteric pain and was treated with implantation of a total hip prosthesis.

In data set [6] the test system is patients with transtendinous rotator cuff tears. As to the kind of experiment: Example 3: subacromial injection 2 to 6 weeks before arthroscopic cuff repair, postoperative pain and mobility. As for the experimental part: A series of 5 patients with a mean age 62 years and transtendinous rotator cuff tears and having been scheduled for arthroscopic cuff repair was 2 to 6 weeks (13 days for two patients and 16,23 and 41 days for the other three patients) preoperatively treated with a subacromial injection of 0.4 microgram resiniferatoxin dissolved in 10 ml 2% lidocaine.
Postinjection pain was controlled with ice packs and NSAIDS. The postoperative pain protocol included 48 hours of interscalene continuous regional anesthesia. Thereafter pain was exceptionally low (VAS <2) in four out of five patients.

Take `COc1cc(CNC(=O)CCCC/C=C/C(C)C)ccc1O` [capsaicin]: the pain after injection result in data set [1] (0.9 mg in 1 ml saline without prior local anesthetics, treated with ice packs and morphine) is “massive pain”. The postoperative pain entry in data set [1] (0.9 mg injected on(e) week prior to the operation, 1 patient) is on record as “almost no postoperative pain”.
On to `C=C(C)[C@]12C[C@@H](C)[C@@]34O[C@](Cc5ccccc5)(O[C@@H]1[C@@H]3C=C(COC(=O)Cc1ccc(O)c(OC)c1)C[C@]1(O)C(=O)C(C)=C[C@@H]41)O2` [resiniferatoxin], for which the “duration of postoperative pain” value in data set [2] (2 micrograms intra-articular 3 weeks preoperatively, 5 ml 0.5% bupivacaine immediately prior, 1 patient) was not above 72 h. The “postoperative pain (VAS)” value in data set [2] (after the first 72 hours) was less than 2 VAS; in data set [3] (after 5 days of regional continuous anesthesia following capsulotomy, all patients), less than 3 VAS; in data set [5] (first postoperative day) it was 5 VAS; in data set [5] (second postoperative day) it was 2 VAS; in data set [6] (after 48 hours of interscalene regional anesthesia, in four out of five patients, 0.4 microgram in 10 ml 2% lidocaine subacromial), less than 2 VAS. In data set [2] (from 3 weeks after the operation, range of motion further improving), the “pain (VAS)” value is reported as 1 VAS. For the same molecule, in data set [3] (2 weeks after injection, before surgery, all 3 patients, 2 micrograms intra-articular with 4 mM Ca2+, 5 ml 0.25% ropivacaine prior, baseline VAS >6), the “pain level (VAS)” value is given as less than 3 VAS. Also, in data set [3] (after capsulotomy, all patients), the “maintenance of intraoperatively achieved mobility” value is reported as “able to fully maintain their intraoperatively achieved mobility”. Moreover, the “need for pain medication after surgery” value in data set [4] was “did not need further pain medication after the second day after surgery”. Further, the post-injection pain entry in data set [5] (0.8 micrograms intra-articular hip, 5 ml lidocaine 2% 10 minutes prior, controlled with oral morphine) is “Moderate”. In addition, the “need for per oral pain medication” value in data set [5] (after second postoperative day) is “did not need any further per oral pain medication”. The pain reported thereafter entry in data set [5] (after second postoperative day) is recorded as “virtually no pain”. Further, in data set [5] (after total hip prosthesis one month after 0.8 micrograms infiltration, 1 patient), the postoperative pain entry was “moderate to none”. Further, the “clinical signs of stiff or frozen shoulder” value in data set [6] (postoperative course up to 1 year follow up) was “no clinical signs corresponding to a stiff or frozen shoulder were observed”. Moreover, the glenohumeral abduction result in data set [6] (six weeks postoperatively) is “at least 80 °”. The “pain upon passive external rotation” value in data set [6] (six weeks postoperatively, 5 patients) was “none of the patients reported pain”. For the same molecule, the “passive external rotation, difference to contralateral side” value in data set [6] (six weeks postoperatively, all patients) was not above 15 °.
